Tests used:
Settings in all cases: binder
[1] = target: CLK4 (Homo sapiens, UniProt Q9HAZ1)
[2] = target: CSNK1G2 (Homo sapiens, UniProt P78368)
[3] = target: DYRK1A (Homo sapiens, UniProt Q13627)
[4] = target: PIM1 (Homo sapiens, UniProt P11309)
[5] = target: PTK6 (Homo sapiens, UniProt Q13882)
[6] = target: RIPK2 (Homo sapiens, UniProt O43353)
[7] = target: ABL2 (Homo sapiens, UniProt P42684)
[8] = target: ADRBK2 (Homo sapiens, UniProt P35626)
[9] = target: CAMK2D (Homo sapiens, UniProt Q13557)
[10] = target: CAMK4 (Homo sapiens, UniProt Q16566)
[11] = target: CAMKK1 (Homo sapiens, UniProt Q8N5S9)
[12] = target: CDKL3 (Homo sapiens, UniProt Q8IVW4)
[13] = target: ITK (Homo sapiens, UniProt Q08881)
[14] = target: LATS1 (Homo sapiens, UniProt O95835)
[15] = target: NEK9 (Homo sapiens, UniProt Q8TD19)
[16] = target: NLK (Homo sapiens, UniProt Q9UBE8)
[17] = target: PAK1 (Homo sapiens, UniProt Q13153)
[18] = target: PRKACA (Homo sapiens, UniProt P17612)
[19] = target: PRKCZ (Homo sapiens, UniProt Q05513)
[20] = target: PRKD2 (Homo sapiens, UniProt Q9BZL6)
[21] = target: PRKG2 (Homo sapiens, UniProt Q13237)
[22] = target: RIPK3 (Homo sapiens, UniProt Q9Y572)
[23] = target: SIK1 (Homo sapiens, UniProt P57059)
[24] = target: STK32B (Homo sapiens, UniProt Q9NY57)
[25] = target: STK40 (Homo sapiens, UniProt Q8N2I9)
[26] = target: TEC (Homo sapiens, UniProt P42680)
[27] = target: VRK3 (Homo sapiens, UniProt Q8IV63)
[28] = target: ERN2 (Homo sapiens, UniProt Q76MJ5)
[29] = target: IGF1R (Homo sapiens, UniProt P08069)
[30] = target: LIMK1 (Homo sapiens, UniProt P53667)
[31] = target: SgK223 (Homo sapiens, UniProt Q86YV5)

Chain of SIK1 (P57059 whole entry): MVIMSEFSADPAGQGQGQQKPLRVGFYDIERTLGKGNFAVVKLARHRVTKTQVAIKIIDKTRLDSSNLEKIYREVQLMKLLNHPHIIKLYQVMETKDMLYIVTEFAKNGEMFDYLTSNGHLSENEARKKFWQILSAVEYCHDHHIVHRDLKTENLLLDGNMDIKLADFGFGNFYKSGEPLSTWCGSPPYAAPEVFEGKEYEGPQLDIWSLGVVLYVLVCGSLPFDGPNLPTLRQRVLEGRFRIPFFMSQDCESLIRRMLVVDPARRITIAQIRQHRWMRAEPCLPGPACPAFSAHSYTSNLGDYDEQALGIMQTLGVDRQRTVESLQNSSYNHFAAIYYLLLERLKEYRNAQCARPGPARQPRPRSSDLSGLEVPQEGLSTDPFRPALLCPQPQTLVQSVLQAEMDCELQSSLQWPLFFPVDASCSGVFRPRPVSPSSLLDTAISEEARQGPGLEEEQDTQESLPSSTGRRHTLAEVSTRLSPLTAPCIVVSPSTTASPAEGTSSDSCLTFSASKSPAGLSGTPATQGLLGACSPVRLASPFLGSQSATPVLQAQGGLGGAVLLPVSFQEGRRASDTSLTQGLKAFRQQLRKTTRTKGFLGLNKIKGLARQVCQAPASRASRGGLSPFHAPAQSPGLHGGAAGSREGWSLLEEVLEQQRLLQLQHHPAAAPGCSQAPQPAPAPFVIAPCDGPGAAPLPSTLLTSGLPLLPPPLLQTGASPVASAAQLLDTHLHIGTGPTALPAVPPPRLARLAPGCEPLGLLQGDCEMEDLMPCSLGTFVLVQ
Chain of CAMK4 (Q16566 whole entry): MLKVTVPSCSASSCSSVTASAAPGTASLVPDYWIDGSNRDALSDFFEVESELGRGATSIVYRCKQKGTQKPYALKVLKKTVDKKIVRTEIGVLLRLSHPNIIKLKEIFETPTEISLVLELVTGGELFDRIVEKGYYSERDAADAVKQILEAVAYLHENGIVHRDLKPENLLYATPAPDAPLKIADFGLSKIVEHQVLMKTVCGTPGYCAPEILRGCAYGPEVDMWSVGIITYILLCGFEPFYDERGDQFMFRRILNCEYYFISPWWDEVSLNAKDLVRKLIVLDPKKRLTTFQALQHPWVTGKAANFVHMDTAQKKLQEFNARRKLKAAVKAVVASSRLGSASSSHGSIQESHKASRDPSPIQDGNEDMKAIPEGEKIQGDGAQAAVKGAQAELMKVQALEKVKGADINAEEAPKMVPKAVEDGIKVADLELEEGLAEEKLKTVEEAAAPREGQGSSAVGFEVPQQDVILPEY
Chain of STK32B (Q9NY57 whole entry): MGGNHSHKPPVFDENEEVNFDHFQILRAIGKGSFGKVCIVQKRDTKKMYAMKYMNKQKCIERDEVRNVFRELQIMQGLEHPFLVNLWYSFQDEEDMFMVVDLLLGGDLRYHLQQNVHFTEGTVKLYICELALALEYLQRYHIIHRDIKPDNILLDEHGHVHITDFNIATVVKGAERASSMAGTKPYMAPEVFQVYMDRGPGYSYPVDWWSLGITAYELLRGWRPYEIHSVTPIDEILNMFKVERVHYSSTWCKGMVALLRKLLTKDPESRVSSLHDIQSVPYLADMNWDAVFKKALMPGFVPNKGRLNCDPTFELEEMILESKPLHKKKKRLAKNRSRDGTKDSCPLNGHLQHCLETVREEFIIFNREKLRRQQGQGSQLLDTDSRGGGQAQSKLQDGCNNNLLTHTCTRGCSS
Chain of RIPK2 (O43353 whole entry): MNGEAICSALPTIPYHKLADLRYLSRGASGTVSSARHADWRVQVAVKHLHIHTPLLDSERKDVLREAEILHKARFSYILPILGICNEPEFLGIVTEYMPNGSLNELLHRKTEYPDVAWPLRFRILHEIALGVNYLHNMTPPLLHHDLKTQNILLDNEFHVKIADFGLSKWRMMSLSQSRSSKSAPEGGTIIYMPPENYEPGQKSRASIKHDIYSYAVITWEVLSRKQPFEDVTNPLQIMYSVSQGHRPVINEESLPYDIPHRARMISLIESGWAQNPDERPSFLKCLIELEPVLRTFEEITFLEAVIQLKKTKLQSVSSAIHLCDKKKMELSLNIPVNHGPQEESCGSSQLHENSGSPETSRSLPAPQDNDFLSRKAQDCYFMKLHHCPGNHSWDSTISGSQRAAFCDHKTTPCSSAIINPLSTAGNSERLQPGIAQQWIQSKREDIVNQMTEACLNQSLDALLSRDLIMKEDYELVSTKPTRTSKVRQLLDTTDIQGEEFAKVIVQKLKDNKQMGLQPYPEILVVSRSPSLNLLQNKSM
Chain of LIMK1 (P53667 whole entry): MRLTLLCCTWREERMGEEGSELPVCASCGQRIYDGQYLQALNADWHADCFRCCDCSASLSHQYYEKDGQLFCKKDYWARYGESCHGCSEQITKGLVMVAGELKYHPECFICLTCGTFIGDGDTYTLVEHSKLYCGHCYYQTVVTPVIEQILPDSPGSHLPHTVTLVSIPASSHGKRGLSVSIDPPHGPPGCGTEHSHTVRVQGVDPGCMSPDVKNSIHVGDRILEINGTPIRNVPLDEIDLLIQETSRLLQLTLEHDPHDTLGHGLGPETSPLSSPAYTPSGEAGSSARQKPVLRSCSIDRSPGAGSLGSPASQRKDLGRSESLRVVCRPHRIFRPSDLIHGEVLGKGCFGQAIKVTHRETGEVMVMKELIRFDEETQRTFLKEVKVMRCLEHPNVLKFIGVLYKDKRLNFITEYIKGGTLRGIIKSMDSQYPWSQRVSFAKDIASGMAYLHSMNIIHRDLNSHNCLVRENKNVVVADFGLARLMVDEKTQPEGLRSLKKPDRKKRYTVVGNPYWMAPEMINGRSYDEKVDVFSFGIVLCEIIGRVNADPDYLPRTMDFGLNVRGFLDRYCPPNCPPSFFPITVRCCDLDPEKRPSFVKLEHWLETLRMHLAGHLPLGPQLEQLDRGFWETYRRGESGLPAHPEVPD
Chain of PRKCZ (Q05513 whole entry): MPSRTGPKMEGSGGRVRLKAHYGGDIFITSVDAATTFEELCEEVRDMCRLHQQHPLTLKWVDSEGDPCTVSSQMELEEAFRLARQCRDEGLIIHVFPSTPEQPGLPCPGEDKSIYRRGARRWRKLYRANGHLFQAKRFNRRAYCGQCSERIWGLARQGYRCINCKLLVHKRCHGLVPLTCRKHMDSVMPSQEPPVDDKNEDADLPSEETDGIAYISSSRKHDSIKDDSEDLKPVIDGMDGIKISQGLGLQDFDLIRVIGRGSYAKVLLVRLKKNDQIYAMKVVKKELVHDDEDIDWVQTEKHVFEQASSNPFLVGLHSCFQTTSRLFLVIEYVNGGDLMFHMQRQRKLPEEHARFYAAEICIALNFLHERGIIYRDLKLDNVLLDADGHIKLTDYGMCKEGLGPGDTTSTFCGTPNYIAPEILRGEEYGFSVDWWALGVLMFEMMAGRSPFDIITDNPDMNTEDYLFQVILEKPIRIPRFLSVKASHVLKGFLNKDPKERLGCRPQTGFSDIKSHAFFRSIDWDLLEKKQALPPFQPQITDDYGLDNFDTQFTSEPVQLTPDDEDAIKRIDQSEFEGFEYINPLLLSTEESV
Chain of PIM1 (P11309 whole entry): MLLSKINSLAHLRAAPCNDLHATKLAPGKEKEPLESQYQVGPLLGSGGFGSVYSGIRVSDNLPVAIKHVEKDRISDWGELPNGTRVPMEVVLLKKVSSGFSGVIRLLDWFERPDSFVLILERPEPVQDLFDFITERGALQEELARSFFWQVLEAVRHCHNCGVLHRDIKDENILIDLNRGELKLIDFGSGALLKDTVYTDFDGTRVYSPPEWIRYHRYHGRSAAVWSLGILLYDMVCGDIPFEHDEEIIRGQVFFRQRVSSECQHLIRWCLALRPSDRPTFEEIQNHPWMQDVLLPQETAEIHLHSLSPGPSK
Chain of TEC (P42680 whole entry): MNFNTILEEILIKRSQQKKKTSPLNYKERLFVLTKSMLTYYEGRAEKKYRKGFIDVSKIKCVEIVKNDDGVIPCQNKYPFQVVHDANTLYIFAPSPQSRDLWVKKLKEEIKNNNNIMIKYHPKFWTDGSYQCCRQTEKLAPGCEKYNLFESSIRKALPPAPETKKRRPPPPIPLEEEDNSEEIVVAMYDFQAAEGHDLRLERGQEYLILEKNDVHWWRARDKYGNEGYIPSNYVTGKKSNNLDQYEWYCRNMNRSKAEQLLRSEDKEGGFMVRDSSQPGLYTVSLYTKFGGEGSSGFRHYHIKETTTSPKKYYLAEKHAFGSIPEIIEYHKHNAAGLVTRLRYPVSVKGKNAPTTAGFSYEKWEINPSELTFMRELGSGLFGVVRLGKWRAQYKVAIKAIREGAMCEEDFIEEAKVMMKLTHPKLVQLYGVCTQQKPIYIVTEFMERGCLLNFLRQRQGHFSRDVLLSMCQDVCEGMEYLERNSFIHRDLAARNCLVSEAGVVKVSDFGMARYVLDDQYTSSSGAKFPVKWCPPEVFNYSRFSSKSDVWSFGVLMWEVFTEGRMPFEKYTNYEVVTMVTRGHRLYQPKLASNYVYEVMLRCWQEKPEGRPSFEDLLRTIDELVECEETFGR
Chain of CAMKK1 (Q8N5S9 whole entry): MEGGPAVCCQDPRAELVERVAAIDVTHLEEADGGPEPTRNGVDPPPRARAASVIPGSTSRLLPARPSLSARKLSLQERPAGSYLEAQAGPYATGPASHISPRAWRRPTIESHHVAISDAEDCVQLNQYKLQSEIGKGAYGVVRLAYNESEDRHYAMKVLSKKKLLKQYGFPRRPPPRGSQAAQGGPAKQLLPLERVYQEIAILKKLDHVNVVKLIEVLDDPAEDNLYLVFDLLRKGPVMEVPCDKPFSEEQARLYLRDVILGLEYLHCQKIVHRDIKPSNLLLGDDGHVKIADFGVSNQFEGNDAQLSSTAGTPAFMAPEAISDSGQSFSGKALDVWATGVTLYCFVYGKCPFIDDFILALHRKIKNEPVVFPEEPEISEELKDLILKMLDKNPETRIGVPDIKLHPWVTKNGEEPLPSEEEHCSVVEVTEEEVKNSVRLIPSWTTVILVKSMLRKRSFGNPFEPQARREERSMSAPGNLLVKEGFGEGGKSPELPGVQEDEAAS

## CC(=O)c1cccc(-c2cnc3ccc(NCC4CC4)nn23)c1 [compound 1, K00135]
[1]
  ΔTm inhibitor 1: 8.5 °C
[2]
  ΔTm inhibitor 1: 2.5 °C
[3]
  ΔTm inhibitor 1: 3.6 °C
[4]
  ΔTm inhibitor 1: 6.3 °C
[5]
  ΔTm inhibitor 1: 0.4 °C
[6]
  ΔTm inhibitor 1: 6.0 °C

## CCN1/C(=C/C(C)=O)Sc2ccc(OC)cc21 [compound 2, TG003]
[7]
  ΔTm inhibitor 2: -0.5 °C
[8]
  ΔTm inhibitor 2: -0.2 °C
[9]
  ΔTm inhibitor 2: -0.6 °C
[10]
  ΔTm inhibitor 2: -0.2 °C
[11]
  ΔTm inhibitor 2: 0.0 °C
[12]
  ΔTm inhibitor 2: 0.1 °C
[13]
  ΔTm inhibitor 2: 1.1 °C
[14]
  ΔTm inhibitor 2: 0.1 °C
[15]
  ΔTm inhibitor 2: 0.5 °C
[16]
  ΔTm inhibitor 2: -0.2 °C
[17]
  ΔTm inhibitor 2: 0.0 °C
[18]
  ΔTm inhibitor 2: -0.2 °C
[19]
  ΔTm inhibitor 2: -0.2 °C
[20]
  ΔTm inhibitor 2: 0.7 °C
[21]
  ΔTm inhibitor 2: -0.1 °C
[22]
  ΔTm inhibitor 2: -0.6 °C
[23]
  ΔTm inhibitor 2: 1.5 °C
[24]
  ΔTm inhibitor 2: -0.2 °C
[25]
  ΔTm inhibitor 2: 0.0 °C
[26]
  ΔTm inhibitor 2: 1.0 °C
[27]
  ΔTm inhibitor 2: 0.5 °C

## Nc1nccc(-c2ccc3noc(-c4ccc(Cl)cc4)c3c2)n1 [compound 4, K00972]
[28]
  ΔTm inhibitor 4: 0.4 °C
[29]
  ΔTm inhibitor 4: 0.2 °C
[30]
  ΔTm inhibitor 4: 0.5 °C
[31]
  ΔTm inhibitor 4: 0.4 °C
